Like-named read-outs stand apart in the source and are kept apart here.
Experiments:
A549 lung cancer cells [1] = tested on: A549 lung cancer cells; design: method as in PMID 26750401, PMID 32987314, PMID 33799070, PMID 36257283; conditions: MTT; parent NSAIDs for reference, some values obtained from the literature; cited from earlier work
[2] = tested on: DU-145 prostate cancer cells; design: method as in PMID 26750401, PMID 32987314, PMID 33799070, PMID 36257283; conditions: MTT; parent NSAIDs for reference, some values obtained from the literature; cited from earlier work
[3] = tested on: PC-3 prostate cancer cells; design: method as in PMID 26750401, PMID 32987314, PMID 33799070, PMID 36257283; conditions: MTT; parent NSAIDs for reference, some values obtained from the literature; cited from earlier work
[4] = tested on: T-47D breast cancer cells; design: method as in PMID 26750401, PMID 32987314, PMID 33799070, PMID 36257283; conditions: MTT; parent NSAIDs for reference, some values obtained from the literature; cited from earlier work
[5] = tested on: HCT-116 colon cancer cells; design: method as in PMID 26750401, PMID 32987314, PMID 33799070, PMID 36257283; conditions: MTT; parent NSAIDs for reference, some values obtained from the literature; cited from earlier work
HT-29 colon cancer cells [6] = tested on: HT-29 colon cancer cells; design: method as in PMID 26750401, PMID 32987314, PMID 33799070, PMID 36257283; conditions: MTT; parent NSAIDs for reference, some values obtained from the literature; cited from earlier work
[7] = tested on: MDA-MB-231 breast cancer cells; design: method as in PMID 26750401, PMID 32987314, PMID 33799070, PMID 36257283; conditions: MTT; parent NSAIDs for reference, some values obtained from the literature; cited from earlier work
H1299 lung cancer cells [8] = tested on: H1299 lung cancer cells; design: method as in PMID 26750401, PMID 32987314, PMID 33799070, PMID 36257283; conditions: MTT; parent NSAIDs for reference, some values obtained from the literature; cited from earlier work
[9] = DPPH radical scavenging assay; conditions: positive controls, each time point and concentration (0.03 and 0.06 mg/mL)
Description: Briefly, the compounds were dissolved at a concentration of 1 mg/mL in absolute methanol, and a dilution was prepared. […] Then, 100 µL of the DPPH solution was added to 100 µL of the compounds’ solution to a final concentration of 0.03 mg/mL or 0.06 mg/mL, and the decolorization of the purple radical to the yellowish reduced form was followed by recording the absorbance at 517 nm. Ascorbic acid (Asc) and Trolox were used as positive controls. Both of them, Asc and Trolox, were purchased from Sigma-Aldrich. Determinations were recorded at eight different time intervals from 0 to 120 min on a BioTeck PowerWave XS spectrophotometer, and the data were collected using KCJunior version 1.41. software. All the measurements were carried out in triplicate. Results are expressed as the percentage of the radical scavenged, calculated using the following formula: % DPPH radical scavenging = [(Acontrol − Asample)/Acontrol] × 100, wherein Acontrol refers to the absorbance of the negative control and Asample refers to the absorbance of the tested compounds.

[10] = tested on: DU-145 prostate cancer cells; assay: MTT cell viability assay, DU-145; format: cell-based; conditions: mean ± SD
Description: (§1) The cell lines were purchased from the American Type Culture Collection (ATCC). The cancer cell lines DU-145, PC-3, T-47D, MDA-MB-231, H1299, and A549, and the non-tumorigenic cells (184B5 and BEAS-2B), were maintained in RPMI 1640 medium (Gibco, Alcobendas, Madrid, Spain) supplemented with 10% fetal bovine serum (FBS; Gibco) and 1% antibiotics (10.00 units/mL penicillin and 10.00 mg/mL streptomycin; Gibco). Colon cancer cells HT-29 and HCT-116 were cultured in McCoy’s 5A medium (Gibco) supplemented with 10% fetal bovine serum (FBS; Gibco) and 1% antibiotics (10.00 units/mL penicillin and 10.00 mg/mL streptomycin; Gibco). Cells were maintained in tissue culture flasks at 37 °C and 5% CO2. The culture medium was replaced every three days.
(§2) The antiproliferative activity and selectivity in vitro of the Se-NSAID derivatives were determined by the (3-(4,5-dimethylthiazol-2-yl)-2,5-diphenyltetrazolium bromide) (MTT) assay. Compounds were dissolved in DMSO at a concentration of 0.01 M and serial dilutions were prepared. The Se-NSAID derivatives were tested at seven concentrations ranging between 1 and 100 µM in the colon (HT-29 and HCT-116), prostate (DU-145 and PC-3), breast (MDA-MB-231 and T-47D), and lung (H1299 and A549) cancer cell lines. The non-tumorigenic breast (184B5) and lung (BEAS-2B) cell lines were also tested to assess the selectivity of the compounds following the same procedure. A total of 1 × 10^4 cells were seeded per well in 96-well plates and incubated at 5% CO2 and 37 °C for 24 h. Then, cells were treated with either DMSO or increasing concentrations of the corresponding Se-NSAID derivatives for 48 h. A volume of 20 µL of MTT (5 mg/mL) was added to each well 2.5 h before the termination point. At the end of the experiment, the medium was removed, and the resultant formazan crystals formed by mitochondrial reduction of MTT were dissolved in 50 µL of DMSO. Absorbance was measured at 550 nm. IC50, GI50, TGI, and LC50 values were calculated using OriginPro version 8.5.1. software by nonlinear curve fitting. Selectivity indexes (SI) were calculated as the ratio of the IC50 values determined for the nonmalignant and the tumoral cells in the breast (IC50 (184B5)/IC50 (MDA-MB-231) and IC50 (184B5)/IC50 (T-47D)) and lung (IC50 (BEAS-2B)/IC50 (H1299) and IC50 (BEAS-2B)/IC50 (A549)) cell lines. Data were obtained from at least three independent experiments performed in triplicates.

[11] = tested on: T-47D breast cancer cells; assay: MTT cell viability assay, T-47D; format: cell-based; conditions: 48 h, mean ± SD
Description: as §1, §2

[12] = tested on: PC-3 prostate cancer cells; assay: MTT cell viability assay, PC-3; format: cell-based; conditions: 48 h, mean ± SD
Description: as §1, §2

[13] = tested on: HCT-116 colon cancer cells; assay: MTT cell viability assay, HCT-116; format: cell-based; conditions: mean ± SD
Description: as §1, §2

[14] = tested on: panel of eight cancer cell lines; assay: MTT cell viability assay, statements on the whole panel; format: cell-based; conditions: 48 h
Description: as §1, §2

[15] = tested on: 184B5 non-tumorigenic breast (mammary gland) cells; assay: MTT cell viability assay, 184B5; format: cell-based; conditions: mean ± SD
Description: as §1, §2

[16] = tested on: BEAS-2B non-tumorigenic lung (bronchial epithelium) cells; assay: MTT cell viability assay, BEAS-2B; format: cell-based; conditions: 48 h, mean ± SD
Description: as §1, §2

H1299 lung cancer cells [17] = assay: MTT cell viability assay, H1299; format: cell-based; conditions: Homo sapiens, NCI-H1299, 48 h, mean ± SD
Description: as §1, §2

[18] = tested on: MDA-MB-231 breast cancer cells; assay: MTT cell viability assay, MDA-MB-231; format: cell-based; conditions: mean ± SD
Description: as §1, §2

A549 lung cancer cells [19] = assay: MTT cell viability assay, A549; format: cell-based; conditions: mean ± SD
Description: as §1, §2

HT-29 colon cancer cells [20] = assay: MTT cell viability assay, HT-29; format: cell-based; conditions: mean ± SD
Description: as §1, §2

[21] = in vitro TGI concentration, 48 h, Table S1
[22] = in vitro TGI concentration, Table S1

## CC(=O)Oc1ccccc1C(=O)O [ASA, aspirin]
A549 lung cancer cells [1]
  IC50: > 50 µM
[2]
  IC50: > 50 µM
[3]
  IC50: > 50 µM
[4]
  IC50: > 50 µM
[5]
  IC50: > 50 µM
HT-29 colon cancer cells [6]
  IC50: > 50 µM
[7]
  IC50: > 50 µM
H1299 lung cancer cells [8]
  IC50: > 50 µM

## O=C1O[C@H]([C@@H](O)CO)C(O)=C1O [Asc, Ascorbic acid, reference compound]
[9]
  DPPH radical scavenging activity: maximal scavenging activity

## COc1ccc2cc(C(C)C(=O)[Se][Se]C(=O)C(C)c3ccc4cc(OC)ccc4c3)ccc2c1 (stereo not drawn) [Compound 3, 2-(6-Methoxynaphthalen-2-yl)propanoic diselenoperoxyanhydride]
[10]; 48 h, Table S1
  LD50 DU-145: 10.4 ± 2.4 µM
[10]; Homo sapiens, DU-145, 48 h
  IC50: 6.1 ± 0.6 µM
[10]; Homo sapiens, DU-145, 48 h, Table S1
  GI50: 5 ± 0.2 µM
[10]; [21]
  TGI DU-145: 6.1 ± 0.6 µM
[11]; Table S1
  LD50 T-47D: 6.3 ± 0.7 µM
[11]; Homo sapiens, T47D
  IC50: 5.6 ± 0.1 µM
[11]; Homo sapiens, T47D, Table S1
  GI50: 1.8 ± 0.2 µM
[11]; [22]
  TGI T-47D: 3.1 ± 0.3 µM
[12]
  IC50: 5.2 ± 0.2 µM
[12]; Table S1
  GI50: 4.4 ± 0.3 µM
  LD50 PC-3: 5.9 ± 0.9 µM
[12]; [22]
  TGI PC-3: 5.0 ± 0.1 µM
[13]; Homo sapiens, HCT-116, 48 h
  IC50: 9.1 ± 5.9 µM
[13]; Homo sapiens, HCT-116, 48 h, Table S1
  GI50: 9.3 ± 4.7 µM
[13]; [21]
  TGI HCT-116: 30.9 ± 16.7 µM
[14]; eight cancer cell lines, read-out: GI50 across all the cancer cell lines tested
  GI50: < 10 µM
[14]; read-out: average IC50 in prostate (DU-145 and PC-3) and breast (MDA-MB-231 and T-47D) cancer cell lines
  IC50: ~5 µM
[15]; Homo sapiens, 184B5, 48 h, Table S1
  GI50: 7.1 ± 0.5 µM
[15]; Homo sapiens, 184B5, 48 h, nonmalignant breast cells
  IC50: 11.9 ± 1 µM
[15]; [21]
  TGI 184B5: 9.4 ± 0.2 µM
[16]; Table S1
  LD50 BEAS-2B: 12.3 ± 2.1 µM
[16]; Homo sapiens, BEAS-2B, Table S1
  GI50: 7 ± 2.5 µM
[16]; Homo sapiens, BEAS-2B, nonmalignant lung cells
  IC50: 11.2 ± 1 µM
[16]; [22]
  TGI BEAS-2B: 9.0 ± 1.2 µM
H1299 lung cancer cells [17]
  IC50: 8.1 ± 2.5 µM
H1299 lung cancer cells [17]; Table S1
  GI50: 6.7 ± 1.1 µM
[18]; Homo sapiens, MDA-MB-231, 48 h
  IC50: 5.7 ± 0.8 µM
[18]; Homo sapiens, MDA-MB-231, 48 h, Table S1
  GI50: 5.2 ± 0.2 µM
[18]; [21]
  TGI MDA-MB-231: 5.6 ± 0.8 µM
A549 lung cancer cells [19]; 48 h
  IC50: > 100 µM
  IC50 A549: no activity at all
A549 lung cancer cells [19]; Homo sapiens, A549, 48 h
  IC50: > 50 µM
A549 lung cancer cells [19]; Homo sapiens, A549, 48 h, Table S1
  GI50: 3.3 ± 0.4 µM
HT-29 colon cancer cells [20]; 48 h
  IC50 HT-29: no activity at all
HT-29 colon cancer cells [20]; Homo sapiens, HT-29, 48 h
  IC50: > 50 µM
HT-29 colon cancer cells [20]; Homo sapiens, HT-29, 48 h, Table S1
  GI50: 6.8 ± 1.4 µM

## CC(C)Cc1ccc(C(C)C(=O)O)cc1 (stereo not drawn) [Ibup, ibuprofen]
A549 lung cancer cells [1]
  IC50: > 50 µM
[2]
  IC50: > 50 µM
[3]
  IC50: > 50 µM
[4]
  IC50: > 50 µM
[5]
  IC50: > 50 µM
HT-29 colon cancer cells [6]
  IC50: > 50 µM
[7]
  IC50: > 50 µM
H1299 lung cancer cells [8]
  IC50: > 50 µM

## COc1ccc2c(c1)c(CC(=O)O)c(C)n2C(=O)c1ccc(Cl)cc1 [Ind, indomethacin]
A549 lung cancer cells [1]
  IC50: > 50 µM
[2]
  IC50: > 50 µM
[3]
  IC50: > 50 µM
[4]
  IC50: > 50 µM
[5]
  IC50: > 50 µM
HT-29 colon cancer cells [6]
  IC50: > 50 µM
[7]
  IC50: > 50 µM
H1299 lung cancer cells [8]
  IC50: > 50 µM

## CC(C(=O)O)c1cccc(C(=O)c2ccccc2)c1 (stereo not drawn) [Ket, ketoprofen]
A549 lung cancer cells [1]
  IC50: > 50 µM
[2]
  IC50: > 50 µM
[3]
  IC50: > 50 µM
[4]
  IC50: > 50 µM
[5]
  IC50: > 50 µM
HT-29 colon cancer cells [6]
  IC50: > 50 µM
[7]
  IC50: > 50 µM
H1299 lung cancer cells [8]
  IC50: > 50 µM

## COc1ccc2cc([C@H](C)C(=O)O)ccc2c1 [Nap, naproxen]
A549 lung cancer cells [1]
  IC50: > 50 µM
[2]
  IC50: > 50 µM
[3]
  IC50: > 50 µM
[4]
  IC50: > 50 µM
[5]
  IC50: > 50 µM
HT-29 colon cancer cells [6]
  IC50: > 50 µM
[7]
  IC50: > 50 µM
H1299 lung cancer cells [8]
  IC50: > 50 µM

## Cc1c(C)c2c(c(C)c1O)CCC(C)(C(=O)O)O2 (stereo not drawn) [Trolox, reference compound]
[9]
  DPPH radical scavenging activity: maximal scavenging activity

Reference: publication PMC10525927, “First Generation of Antioxidant Precursors for Bioisosteric Se-NSAIDs: Design, Synthesis, and In Vitro and In Vivo Anticancer Evaluation” (Antioxidants, 2023)
